Results published in the supplement of paper PMC13380429.

How the values were obtained:
A549-ACE2 [1] = assay: phospholipidosis EC50; higher = less potent phospholipidosis inducer
[2] = system: A549-ACE2 infected with SARS-CoV-2; assay: morphology score (similarity to uninfected cells); higher = more like uninfected cells; conditions: 24 h
Caco-2 [3] = assay: drug sensitivity score (DSS) for viability; higher = more toxic; extreme values may be limits of the assay; conditions: 72 h
Calu-3 [4] = assay: as above; conditions: 72 h
HepG2 [5] = assay: as above; conditions: 72 h
U2OS [6] = assay: as above; conditions: 72 h
Vero E6 [7] = assay: as above; conditions: 72 h
[8] = system: A549-ACE2 infected with SARS-CoV-2; assay: cell count relative to DMSO; higher = less toxic; conditions: 24 h
Caco-2 [9] = assay: cell viability relative to DMSO; higher = less toxic; conditions: 72 h
Calu-3 [10] = assay: as above; conditions: 72 h
HepG2 [11] = assay: as above; conditions: 72 h
Vero E6 [12] = assay: as above; conditions: 72 h
[13] = system: A549-ACE2 infected with SARS-CoV-2; assay: SARS-CoV-2 infection rate relative to DMSO; higher = more infection; conditions: 24 h
A549-ACE2 [14] = assay: drug-induced phospholipidosis relative to tamoxifen; higher = more phospholipidosis
Caco-2 [15] = assay: relative viability EC50 (midpoint between 100% and the lowest measured viability); higher = less toxic; conditions: 72 h
Calu-3 [16] = assay: as above; conditions: 72 h
Vero E6 [17] = assay: as above; conditions: 72 h
U2OS [18] = assay: cell viability relative to DMSO; higher = less toxic; conditions: 72 h
HepG2 [19] = assay: relative viability EC50 (midpoint between 100% and the lowest measured viability); higher = less toxic; conditions: 72 h
U2OS [20] = assay: as above; conditions: 72 h

COc1cc(C(=O)NC2CCN(C)CC2)c(F)cc1Nc1ncc2c(n1)N(C1CCCC1)CC(F)(F)C(=O)N2C [TAK-960]
Conditions | morphology score, 0.1 µM | morphology score, 0.3 µM | morphology score, 1 µM | morphology score, 3 µM | phospholipidosis EC50, 24 h [µM]
A549-ACE2 [1] | – | – | – | – | 3.2
[2] | -0.06 | -0.01 | 0.15 | 0.58 | –

Conditions | drug sensitivity score
Caco-2 [3] | 10.9
Calu-3 [4] | 4.3
HepG2 [5] | 21.8
U2OS [6] | 12.5
Vero E6 [7] | 12.5

COc1ccc2cc1Oc1ccc(cc1)C[C@H]1c3cc(c(OC)cc3CCN1C)Oc1c(OC)c(OC)cc3c1[C@H](C2)N(C)CC3 [tetrandrine]
Conditions | SARS-CoV-2 infection rate [%] | cell count [%] | cell viability [%] | morphology score | phospholipidosis EC50 [µM]
A549-ACE2 [1], 24 h | – | – | – | – | 7
A549-ACE2 [1], 48 h | – | – | – | – | 10.2
A549-ACE2 [1], 72 h | – | – | – | – | 5.6
Caco-2 [9], 1 nM | – | – | 100 | – | –
Caco-2 [9], 10 nM | – | – | 97.9 | – | –
Caco-2 [9], 100 nM | – | – | 92.1 | – | –
Caco-2 [9], 1000 nM | – | – | 95.4 | – | –
Caco-2 [9], 10000 nM | – | – | 79.5 | – | –
Calu-3 [10], 1 nM | – | – | 88.3 | – | –
Calu-3 [10], 10 nM | – | – | 109 | – | –
Calu-3 [10], 100 nM | – | – | 91.3 | – | –
Calu-3 [10], 1000 nM | – | – | 99.9 | – | –
Calu-3 [10], 10000 nM | – | – | 29.1 | – | –
HepG2 [11], 1 nM | – | – | 104 | – | –
HepG2 [11], 10 nM | – | – | 102 | – | –
HepG2 [11], 100 nM | – | – | 97.7 | – | –
HepG2 [11], 1000 nM | – | – | 94.1 | – | –
HepG2 [11], 10000 nM | – | – | 71.5 | – | –
Vero E6 [12], 1 nM | – | – | 100 | – | –
Vero E6 [12], 10 nM | – | – | 94.2 | – | –
Vero E6 [12], 100 nM | – | – | 94.6 | – | –
Vero E6 [12], 1000 nM | – | – | 94.4 | – | –
Vero E6 [12], 10000 nM | – | – | 92.6 | – | –
[2], 0.3 µM | – | – | – | 0.37 | –
[2], 3 µM | – | – | – | 0.79 | –
[2], 10 µM | – | – | – | 0.07 | –
[2], 30 µM | – | – | – | -0.15 | –
[8], 0.3 µM | – | 106 | – | – | –
[8], 3 µM | – | 115 | – | – | –
[8], 10 µM | – | 119 | – | – | –
[8], 30 µM | – | 79 | – | – | –
[13], 0.3 µM | 92 | – | – | – | –
[13], 3 µM | 23 | – | – | – | –
[13], 10 µM | 21 | – | – | – | –
[13], 30 µM | 42 | – | – | – | –

drug-induced phospholipidosis [%], A549-ACE2 [14]
Conditions | 0.3 µM | 0.833333 µM | 3.33333 µM | 6.66667 µM | 10 µM | 30 µM
24 h | 16.2 | 29.5 | 61.4 | 78 | 92.7 | 115
48 h | 16.2 | 22.2 | 51.1 | 78.8 | 101 | 145
72 h | 8.49 | 16.5 | 49.2 | 80.6 | 103 | 176

Conditions | drug sensitivity score | relative viability EC50 [µM]
Caco-2 [3] | 0.7 | –
Caco-2 [15] | – | > 10
Calu-3 [4] | 3.9 | –
Calu-3 [16] | – | 3.15
HepG2 [5] | 2.1 | –
Vero E6 [7] | 0 | –
Vero E6 [17] | – | > 10

CCCCCC(=O)O[C@]1(C(C)=O)CC[C@H]2[C@@H]3CCC4=CC(=O)CC[C@]4(C)[C@H]3CC[C@@]21C [17-hydroxyprogesterone-caproate]
Conditions | SARS-CoV-2 infection rate, [13] [%] | cell count, [8] [%] | cell viability, Caco-2 [9] [%] | cell viability, Calu-3 [10] [%] | cell viability, HepG2 [11] [%] | cell viability, U2OS [18] [%] | cell viability, Vero E6 [12] [%] | morphology score, [2]
1 nM | – | – | 92.7 | 86.9 | 97.1 | 98.1 | 97.8 | –
10 nM | – | – | 95.9 | 99 | 96.6 | 95.7 | 103 | –
100 nM | – | – | 107 | 100 | 98 | 99.7 | 95.1 | –
0.3 µM | 95 | 103 | – | – | – | – | – | 0.25
1000 nM | – | – | 92.8 | 88.6 | 97.6 | 99.4 | 95.4 | –
3 µM | 88 | 104 | – | – | – | – | – | 0.34
10 µM | 81 | 106 | – | – | – | – | – | 0.47
10000 nM | – | – | 64.7 | 99.5 | 94.8 | 95.9 | 103 | –
30 µM | 34 | 104 | – | – | – | – | – | 0.79

drug-induced phospholipidosis [%], A549-ACE2 [14]
Conditions | 0.3 µM | 0.833333 µM | 3.33333 µM | 6.66667 µM | 10 µM | 30 µM
24 h | 6.66 | 6.09 | 4.63 | 8.81 | 8.05 | 21.5
48 h | 5.77 | 4.75 | 0.98 | 3.88 | 3.43 | 9.55
72 h | 6.76 | 2.38 | 2.24 | 4.3 | 4.77 | 13.6

Conditions | drug sensitivity score | relative viability EC50 [µM]
Caco-2 [3] | 2.8 | –
Calu-3 [4] | 0 | –
Calu-3 [16] | – | > 10
HepG2 [5] | 0 | –
HepG2 [19] | – | > 10
U2OS [6] | 0 | –
U2OS [20] | – | > 10
Vero E6 [7] | 0 | –
Vero E6 [17] | – | > 10

C=CC(=O)N1CCN(C(=O)CNc2cc(I)c(Cl)cc2O)CC1 [K-Ras(G12C)-inhibitor-12]
Conditions | SARS-CoV-2 infection rate, [13] [%] | cell count, [8] [%] | cell viability, Caco-2 [9] [%] | cell viability, Calu-3 [10] [%] | cell viability, HepG2 [11] [%] | cell viability, U2OS [18] [%] | cell viability, Vero E6 [12] [%] | morphology score, [2]
1 nM | – | – | 102 | 112 | 95.2 | 108 | 101 | –
10 nM | – | – | 96.3 | 103 | 98.1 | 96.9 | 107 | –
100 nM | – | – | 106 | 104 | 88.2 | 104 | 90.2 | –
0.3 µM | 74 | 109 | – | – | – | – | – | 0.34
1000 nM | – | – | 88.3 | 75.5 | 72.8 | 96.6 | 54.1 | –
3 µM | 86 | 93 | – | – | – | – | – | 0.05
10 µM | 76 | 93 | – | – | – | – | – | 0.03
10000 nM | – | – | 76.6 | 79.5 | 42.8 | 93.5 | 40.1 | –
30 µM | 77 | 85 | – | – | – | – | – | -0.03

drug-induced phospholipidosis [%], A549-ACE2 [14]
Conditions | 0.3 µM | 0.833333 µM | 3.33333 µM | 6.66667 µM | 10 µM | 30 µM
24 h | 8.49 | 7.52 | 10 | 12 | 13.7 | 24
48 h | 5.08 | 2.66 | 7.02 | 10.2 | 11.5 | 19.6
72 h | 5.88 | 1.74 | 5.37 | 8.06 | 13.5 | 16

Conditions | drug sensitivity score | relative viability EC50 [µM]
Caco-2 [3] | 2.2 | –
Caco-2 [15] | – | > 10
Calu-3 [4] | 3.5 | –
Calu-3 [16] | – | > 10
HepG2 [5] | 6.5 | –
HepG2 [19] | – | 0.805
U2OS [6] | 0 | –
U2OS [20] | – | > 10
Vero E6 [7] | 9.6 | –
Vero E6 [17] | – | 0.388
